Results published in patent publication US9511091B2, “Rare earth metal compounds, methods of making, and methods of using the same” (Spectrum Pharmaceuticals, Inc., priority 2002, dated 2016).

Legend:
[1] = plasma lanthanum exposure in dogs (ICP-MS); type: in vivo, beagle dogs; settings: oral capsules, 2250 mg elemental lanthanum twice daily, (standard deviation)
Description: (§1) Six adult beagle dogs were dosed orally with capsules of LaCO3OH (compound A) or La2O2CO3 (compound B) in a cross-over design using a dose of 2250 mg elemental lanthanum twice daily (6 hours apart). The doses were administered 30 minutes after provision of food to the animals. At least 14 days washout was allowed between the crossover arms. Plasma was obtained pre-dose and 1.5, 3, 6, 7.5, 9, 12, 24, 36, 48, 60, and 72 hours after dosing and analyzed for lanthanum using ICP-MS. Urine was collected by catheterization before and approximately 24 hours after dosing and creatinine and phosphorus concentrations measured.

[2] = binding efficiency test, spiked water; settings: 0.50 g in 30.0 ml spike solution, approximately 1 mg/l of each element, 18 hrs, room temperature
Description: Tests were run to determine the binding efficiency of eight different compounds for twenty-four different elements.
The main objective of the tests was to investigate the efficiency at which the compounds bind arsenic and selenium, in view of their use in removing those elements from drinking water. Twenty-one different anions were also included to explore further possibilities. The tests were performed as follows:
The compounds given in Table 6 were added to water and a spike and were vigorously shaken at room temperature for 18 hrs. The samples were filtered and the filtrate analyzed for a suite of elements including Sb, As, Be, Cd, Ca, Cr, Co, Cu, Fe, Pb, Mg, Mn, Mo, Ni, Se, Tl, Ti, V, Zn, Al, Ba, B, Ag, and P.
2. Add standard solutions of the elements given above to make solutions containing approximately 1 mg/l of each element.
1. Weigh 0.50 g of each compound into its own 50 ml centrifuge tube.
2. Add 30.0 ml of the spike solution to each.
3. Cap tightly and shake vigorously for 18 hrs.
4. Filter solution from each centrifuge tube through 0.2 µm syringe filter. Obtain about 6 ml of filtrate.
5. Dilute filtrates 5:10 with 2% HNO3. Final Matrix is 1% HNO3.

[3] = reactivity with respect to phosphate: phosphate removal from pH 3 Na2HPO4/HCl stock solution; type: binding; settings: for rate of removal of phosphate compared with commercial lanthanum carbonate hydrate La2(CO3)3.H2O and La2(CO3)3.4H2O: FIGS. 17, 20, 23, pH 3; for capacity of phosphate removal (PO4 removed/g of La compound) / phosphate in solution removed: after 10 min, pH 3, La 3 times the stoichiometric amount
Description: A desirable lanthanum carbonate hydroxide is LaCO3OH. […] To determine the reactivity of the lanthanum carbonate hydroxide compound with respect to phosphate, the following procedure was used. A stock solution containing 13.75 g/l of anhydrous Na2HPO4 and 8.5 g/l of HCl is prepared. The stock solution is adjusted to pH 3 by the addition of concentrated HCl. 100 ml of the stock solution is placed in a beaker with a stirring bar. A sample of lanthanum carbonate hydroxide powder is added to the solution. The amount of lanthanum carbonate hydroxide powder is such that the amount of La in suspension is 3 times the stoichiometric amount needed to react completely with the phosphate. Samples of the suspension are taken at intervals, through a filter that separated all solids from the liquid. The liquid sample is analyzed for phosphorous.
(§2) To determine the reactivity of the lanthanum compound with respect to phosphate, the following test was conducted. A stock solution containing 13.75 g/l of anhydrous Na2HPO4 and 8.5 g/l of HCl was prepared. The stock solution was adjusted to pH 3 by the addition of concentrated HCl. An amount of 100 ml of the stock solution was placed in a beaker with a stirring bar. The lanthanum oxychloride from above was added to the solution to form a suspension. The amount of lanthanum oxychloride was such that the amount of La in suspension was 3 times the stoichiometric amount needed to react completely with the phosphate. Samples of the suspension were taken at time intervals, through a filter that separated all solids from the liquid. The liquid sample was analyzed for phosphorous.
as §2, with “Lanthanum carbonate hydroxide powder made as described” for “The lanthanum oxychloride from”, “solution.” for “solution to form a suspension.”, “carbonate hydroxide powder” for “oxychloride”, “intervals” for “intervals,”
(§3) To determine the reactivity of this lanthanum compound with respect to phosphate, the following test was conducted. A stock solution containing 13.75 g/l of anhydrous Na2HPO4 and 8.5 g/l of HCl was prepared. The stock solution was adjusted to pH 3 by the addition of concentrated HCl. An amount of 100 ml of the stock solution was placed in a beaker with a stirring bar. Anhydrous lanthanum oxycarbonate made as described above, was added to the solution. The amount of anhydrous lanthanum oxycarbonate was such that the amount of La in suspension was 3 times the stoichiometric amount needed to react completely with the phosphate. Samples of the suspension were taken at intervals, through a filter that separated all solids from the liquid. The liquid sample was analyzed for phosphorous.
as §3, with “reactivity of the lanthanum compound” for “reactivity of this lanthanum compound”, “stirring bar. La2CO5 powder, made as” for “stirring bar. Anhydrous lanthanum oxycarbonate made as”, “amount of lanthanum oxycarbonate” for “amount of anhydrous lanthanum oxycarbonate”, “taken at intervals through a” for “taken at intervals, through a”

[4] = urine phosphate excretion in dogs dosed orally with capsules; type: in vivo, beagle dogs; settings: oral capsules, 2250 mg elemental lanthanum twice daily, urine approximately 24 hours after dosing
Description: as §1
The tests led to reduction of urine phosphate excretion, a marker of phosphorous binding.

[5] = specific surface area by the BET method; type: physicochemical
Description: For each sample, the surface area measured by the BET method and the fraction of phosphate remaining after 10 min of reaction have been tabulated. […] The rate constant k1 is defined by the following equation: d[PO4]/dt=−k1[PO4]
An aqueous HCl solution having a volume of 334.75 ml and containing LaCl3 (lanthanum chloride) at a concentration of 29.2 wt % as La2O3 was added to a 4 liter beaker and heated to 80° C. with stirring. The initial pH of the LaCl3 solution was 2.2. Two hundred and sixty five ml of an aqueous solution containing 63.59 g of sodium carbonate (Na2CO3) was metered into the heated beaker using a small pump at a steady flow rate for 2 hours. Using a Buchner filtering apparatus fitted with filter paper the filtrate was separated from the white powder product. The filter cake was mixed four times, each with 2 liters of distilled water and filtered to wash away the NaCl formed during the reaction. The washed filter cake was placed into a convection oven set at 105° C. for 2 hours or until a stable weight was observed. […] The surface area of the product was determined by the BET method. The test was repeated 3 times and slightly different surface areas and different reaction rates were obtained as shown in Table 1.

[6] = second in vivo study in rats, urinary phosphate excretion; set-up: species or system Sprague-Dawley rats; settings: 0.3 or 0.6% of diet, average over days 2, 3, and 4
Text: Six young adult male Sprague-Dawley rats were randomly assigned to each group. Test items were lanthanum oxycarbonates La2O2CO3 and La2CO5 (compound B and compound C), each tested at 0.3 and 0.6% of diet. There was an additional negative control group receiving Sigmacell cellulose in place of the test item.
The test items were mixed thoroughly into Teklad 7012CM diet. All groups received equivalent amounts of dietary nutrients.
Rats were maintained in the animal facility for at least five days prior to use, housed individually in stainless steel hanging cages. On the first day of testing, they were placed individually in metabolic cages along with their test diet. Every 24 hours, their output of urine and feces was measured and collected and their general health visually assessed. The study continued for 4 days. Food consumption for each day of the study was recorded. Starting and ending animal weights were recorded.
Urine samples were assayed for phosphorus, calcium, and creatinine concentration in a Hitachi 912 analyzer using Roche reagents. Urinary excretion of phosphorus per day was calculated for each rat from daily urine volume and phosphorus concentration. […] Food consumption was good for all groups. […]

Row | Compound | Maximum concentration Cmax, plasma lanthanum [1] | Mean (sd) Area Under the Curve0-72 h, plasma lanthanum [1] | % Analyte Removed As [2] | % Analyte Removed Be [2] | % Analyte Removed Ca [2] | % Analyte Removed Cd [2] | % Analyte Removed Co [2] | % Analyte Removed Cr [2] | % Analyte Removed Cu [2] | % Analyte Removed Fe [2] | % Analyte Removed Mg [2] | % Analyte Removed Mn [2] | % Analyte Removed Pb [2] | % Analyte Removed Sb [2] | rate of removal of phosphate compared with commercial lanthanum carbonate hydrate La2(CO3)3.H2O and La2(CO3)3.4H2O [3] | capacity of phosphate removal (PO4 removed/g of La compound) [3] | phosphate in solution removed [3] | Median phosphorus/creatinine ratio (% reduction compared to pre-dose value) [4] | Urinary phosphate excretion [6] | also measured
1 | O=C([O-])[O-].[La+3].[OH-] [A, lanthanum carbonate hydroxide] | 2.77 (2.1) ng/mL | 54.6 (28.0) ng-h/mL | 29% | 53% | 28% | 37% | 29% | 100% | 10% | 58% | 0% | 25% | 98% | 87% | faster | 110 mg PO4/g | 86% | 48.4% |  | 
2 | O=C([O-])[O-].[La+3].[La+3].[O-2].[O-2] [Compound B, anhydrous lanthanum oxycarbonate] | 2.45 (2.2) ng/mL | 42.7 (34.8) ng-h/mL | 92% | 100% | 21% | 85% | 59% | 100% | 98% | 100% | 0% | 99% | 99% | 97% | faster | 120 mg PO4/g | 73% | 37.0% | 2.3 mg/day | surface area of the white powder ([5]; one of three repeats of Example 5): 26.95 m^2/gm
3 | O.O=C([O-])[O-].O=C([O-])[O-].O=C([O-])[O-].[La+3].[La+3] [Sample 10, La2(CO3)3•1H2O, reference compound] |  |  |  |  |  |  |  |  |  |  |  |  |  |  |  |  |  |  |  | BET surface area [5]: 2.9 m^2/g; rate of removal of phosphate compared with LaOCl of Example 1 ([3]; FIG. 14, pH 3): faster at the beginning but slower after about 3 minutes; Initial 1st order rate constant k1 ([3]; calculated from the experimental points for the first minute of the reaction, pH 3): 0.094 min⁻¹; Fraction of PO4 remaining after 10 min ([3]; pH 3 stock solution, La 3 times the stoichiometric amount, 10 min): 0.790
4 | lanthanum oxycarbonate [Compound C] |  |  | 93% | 100% | 0% | 83% | 52% | 100% | 97% | 100% | 0% | 99% | 99% | 96% | faster |  |  |  | 1.9 mg/day | 
